# In patent US10570152B2, “Antibacterial therapeutics and prophylactics” (VYOME BIOSCIENCES PVT. LTD., priority 2015, dated 2020):
# Columns and labels:
# [1] = tested on: P. acnes CCARM 9010 induced paw inflammation; assay: Anti-inflammatory action in vivo, rat paw edema model; set-up: species or system Sprague Dawley rats; settings: topical, 24 h post initiation of treatment (32 h post induction)
# Excerpt: Host inflammation is one of the crucial clinical feature of most of the indications associated with bacterial infections. The inventors used an exemplary compound of the invention (Compound 2) to test the anti-inflammatory effects in vivo using rat paw edema model. Inflammation was induced using one of the opportunistic pathogens Propionibacterium acnes prevalent in implant associated infections. Sprague Dawley rats were used for the study and infection was induced by P. acnes CCARM 9010. An inoculum of 1×10^9 CFU/ml of the heat killed bacteria was injected to the plantar side of the right hind paw (˜2×10^7 CFU/paw) except in sham control where saline was injected. Treatments were initiated 8 h post injection by applying the test formulation of Compound 2 (30 mg) twice daily to the plantar surface of the right hind paw and gently rubbing 50 times with the index finger. Comparators Acnedap (dapsone 5% gel) and adapalene gel (Adaferin®) were applied twice daily and once daily based on clinical prescription dosage. Paw sizes were measured in millimeters using Vernier calipers at the start of the infection, 8 h post infection, and 24 h post initiation of treatment (32 h post induction of inflammation). The change in paw size, due to inflammation, was evaluated as the difference between the paw size measured at each time point and the basal paw size measured immediately before edema induction.
# A. baumannii ATCC 1906 = assay: MIC by micro broth dilution; assay type: cell-based; settings: Acinetobacter baumannii, ATCC1906, read-out: Minimum inhibitory concentration (MIC)
# Protocol: (§1) MIC of DART molecules were determined by micro broth dilution as per CLSI guidelines. Bacterial strains were cultured in Brain Heart Infusion Agar (BHIA) at 37° C. for 24 h. For MIC determination, BHI broth (100 μl) was added to each of the wells of a 96 well plate. 100 μl of broth containing drug was added to the first well (1A to 1H) and thereafter serial (double) dilutions were carried out for up to 10 wells (column 1 to column 10 of the 96 well plate). Bacterial inoculum was prepared by adjusting the bacterial culture turbidity to 0.5 McFarland standard (approximately 1.5×10^8 cells/ml) and further diluted (100 times with sterile BHI broth). Diluted bacterial suspension (100 μl) was added to each well except sterility control wells (column 12 of 96 well plate). The plates were incubated at 37° C. for 24 h. The MIC of the test compound was measured after addition of Alamar blue dye.
# A. baumannii CCARM 12001 = assay: MIC by micro broth dilution; assay type: cell-based; settings: Acinetobacter baumannii, CCARM12001, read-out: Minimum inhibitory concentration (MIC)
# Protocol: as §1
# A. baumannii CCARM 12020 = assay: MIC by micro broth dilution; assay type: cell-based; settings: Acinetobacter baumannii, CCARM12020, read-out: Minimum inhibitory concentration (MIC)
# Protocol: as §1
# E. aerogenes M2-1 = assay: MIC by micro broth dilution; assay type: cell-based; settings: Klebsiella aerogenes, M21, read-out: Minimum inhibitory concentration (MIC)
# Protocol: as §1
# E. aerogenes NCIM 5139 = assay: MIC by micro broth dilution; assay type: cell-based; settings: Klebsiella aerogenes, NCIM5139, read-out: Minimum inhibitory concentration (MIC)
# Protocol: as §1
# E. coli BAA 196 = assay: MIC by micro broth dilution; assay type: cell-based; settings: Escherichia coli, BAA196, read-out: Minimum inhibitory concentration (MIC)
# Protocol: as §1
# E. coli MTCC 1687 = assay: MIC by micro broth dilution; assay type: cell-based; settings: Escherichia coli, MTCC1687, read-out: Minimum inhibitory concentration (MIC)
# Protocol: as §1
# E. faecium CCARM 5207 = assay: MIC by micro broth dilution; assay type: cell-based; settings: Enterococcus faecium, CCARM5207, read-out: Minimum inhibitory concentration (MIC)
# Protocol: as §1
# E. faecium NCIM 5421 = assay: MIC by micro broth dilution; assay type: cell-based; settings: Enterococcus faecium, NCIM5421, read-out: Minimum inhibitory concentration (MIC)
# Protocol: as §1
# E. fecalis CCARM 5168 = assay: MIC by micro broth dilution; assay type: cell-based; settings: read-out: Minimum inhibitory concentration (MIC)
# Protocol: as §1
# K. pneumonia ATCC 13883 = assay: MIC by micro broth dilution; assay type: cell-based
# Protocol: as §1
# P. aeruginosa ATCC 27853 = assay: MIC by micro broth dilution; assay type: cell-based; settings: Pseudomonas aeruginosa, ATCC27853, read-out: Minimum inhibitory concentration (MIC)
# Protocol: as §1
# P. aeruginosa CCARM 2161 = assay: MIC by micro broth dilution; assay type: cell-based; settings: Pseudomonas aeruginosa, CCARM2161, read-out: Minimum inhibitory concentration (MIC)
# Protocol: as §1
# P. aeruginosa CCARM 2204 = assay: MIC by micro broth dilution; assay type: cell-based; settings: Pseudomonas aeruginosa, CCARM2204, read-out: Minimum inhibitory concentration (MIC)
# Protocol: as §1
# S. aureus ATCC 43300 = assay: MIC by micro broth dilution; assay type: cell-based; settings: Staphylococcus aureus, ATCC43300; S. aureus ATCC 43300; read-out: Minimum inhibitory concentration (MIC)
# Protocol: as §1
# S. aureus CCARM 3505 = assay: MIC by micro broth dilution; assay type: cell-based; settings: Staphylococcus aureus, CCARM3505, read-out: Minimum inhibitory concentration (MIC)
# Protocol: as §1
# S. aureus MTCC 6908 = assay: MIC by micro broth dilution; assay type: cell-based; settings: Staphylococcus aureus, MTCC6908, read-out: Minimum inhibitory concentration (MIC)
# Protocol: as §1
# [2] = tested on: S. epidermidis ATCC 35984; assay: MIC by micro broth dilution; assay type: cell-based; settings: Staphylococcus epidermidis, ATCC35984, read-out: Minimum inhibitory concentration (MIC)
# Protocol: as §1
# S. epidermidis S12-1 = assay: MIC by micro broth dilution; assay type: cell-based; settings: Staphylococcus epidermidis, S121, read-out: Minimum inhibitory concentration (MIC)
# Protocol: as §1
MIC (E. faecium CCARM 5207),MIC (E. faecium NCIM 5421),MIC (E. fecalis CCARM 5168),MIC (S. aureus ATCC 43300),MIC (S. aureus CCARM 3505),MIC (S. aureus MTCC 6908),MIC [2],MIC (S. epidermidis S12-1),Compound,also measured
–,–,–,–,–,–,–,–,"COc1ccc(-c2ccc3cc(C(=O)O)ccc3c2)cc1C12CC3CC(CC(C3)C1)C2 [Adapalene, adapalene, reference compound]",Inhibition of inflammation (%) at 24 h post treatment [1]: 31.55%
8 µg/mL,0.625 µg/mL,4 µg/mL,0.03 µg/mL,1 µg/mL,0.125 µg/mL,< 0.03 µg/mL,0.13 µg/mL,"CC1Sc2c(C(=O)O)c(=O)c3cc(F)c(N4CCN(C(=O)c5ccc([N+](=O)[O-])o5)CC4)cc3n21 (centres unmarked) [Compound 11, 6-Fluoro-1-methyl-7-(4-(5-nitrofuran-2-carbonyl)piperazin-1-yl)-4-oxo-1H,4H-[1,3]thiazeto[3,2-a]-quinoline-3-carboxylic acid]","MIC (A. baumannii ATCC 1906): 1 µg/mL; MIC (A. baumannii CCARM 12001): > 16 µg/mL; MIC (A. baumannii CCARM 12020): > 16 µg/mL; MIC (E. aerogenes M2-1): 0.25 µg/mL; MIC (E. aerogenes NCIM 5139): 0.125 µg/mL; MIC (E. coli BAA 196): 1 µg/mL; MIC (E. coli MTCC 1687): 0.25 µg/mL; activity in words (K. pneumonia ATCC 13883; Klebsiella pneumonia (susceptible)): active; MIC (K. pneumonia ATCC 13883; Klebsiella pneumoniae, ATCC13883, K. pneumonia ATCC 13883, read-out: Minimum inhibitory concentration (MIC)): 0.5 µg/mL; MIC (P. aeruginosa ATCC 27853): 1 µg/mL; MIC (P. aeruginosa CCARM 2161): > 16 µg/mL; MIC (P. aeruginosa CCARM 2204): > 16 µg/mL"
> 16 µg/mL,> 16 µg/mL,> 16 µg/mL,32 µg/mL,> 16 µg/mL,> 64 µg/mL,16 µg/mL,> 16 µg/mL,"CC1Sc2c(C(=O)O)c(=O)c3cc(F)c(N4CCN(CC(=O)Nc5ccc6nc(N)[nH]c6c5)CC4)cc3n21 (centres unmarked) [Compound 19, 7-(4-(2-((2-Amino-1H-benzo[d]imidazol-6-yl)-amino)-2-oxoethyl)piperazin-1-yl)-6-fluoro-1-methyl-4-oxo-1H,4H-[1,3]thiazeto[3,2-a]quinoline-3-carboxylic acid]",–
